Assay results published in the Kinase Knowledgebase extract (Sharma et al. 2016).

Biological target: PIK3CA (human) (UniProt P42336)
Assay: Cell-Based Assay
Details: bt474

Sequence of PIK3CA (human) (P42336 whole entry, looked up): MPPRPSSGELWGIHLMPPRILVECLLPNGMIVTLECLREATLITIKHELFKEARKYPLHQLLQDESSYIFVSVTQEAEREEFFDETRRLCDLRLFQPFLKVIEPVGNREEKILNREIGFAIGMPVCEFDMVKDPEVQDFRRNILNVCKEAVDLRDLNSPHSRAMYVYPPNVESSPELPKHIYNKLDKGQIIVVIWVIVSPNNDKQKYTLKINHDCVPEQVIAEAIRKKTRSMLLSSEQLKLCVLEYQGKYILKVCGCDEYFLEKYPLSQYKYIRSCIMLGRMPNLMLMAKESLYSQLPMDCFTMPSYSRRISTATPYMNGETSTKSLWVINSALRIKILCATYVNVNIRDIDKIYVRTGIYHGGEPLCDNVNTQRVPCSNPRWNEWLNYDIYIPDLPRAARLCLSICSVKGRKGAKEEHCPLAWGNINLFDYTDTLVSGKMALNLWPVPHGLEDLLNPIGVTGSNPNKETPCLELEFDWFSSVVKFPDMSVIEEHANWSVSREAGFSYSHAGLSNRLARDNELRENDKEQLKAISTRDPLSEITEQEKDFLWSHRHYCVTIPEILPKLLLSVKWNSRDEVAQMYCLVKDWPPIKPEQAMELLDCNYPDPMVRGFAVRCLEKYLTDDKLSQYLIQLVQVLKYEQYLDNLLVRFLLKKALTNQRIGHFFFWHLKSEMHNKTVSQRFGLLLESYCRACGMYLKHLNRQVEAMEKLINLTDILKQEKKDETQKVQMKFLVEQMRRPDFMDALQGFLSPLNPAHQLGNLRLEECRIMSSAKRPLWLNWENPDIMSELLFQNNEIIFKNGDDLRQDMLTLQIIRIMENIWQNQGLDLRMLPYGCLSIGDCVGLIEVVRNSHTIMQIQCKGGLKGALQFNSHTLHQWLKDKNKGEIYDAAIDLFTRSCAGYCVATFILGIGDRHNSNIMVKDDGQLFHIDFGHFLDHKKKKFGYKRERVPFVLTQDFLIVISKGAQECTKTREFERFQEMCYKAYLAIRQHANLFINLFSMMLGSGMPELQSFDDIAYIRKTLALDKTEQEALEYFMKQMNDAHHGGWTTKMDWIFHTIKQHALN

Compound | IC50 [µM]
CN(C)CCCOc1ccc(-c2cc3c(cc2F)ncc2c3n([C@H]3CCCOC3)c(=O)n2C)cn1 | > 20.2
Cn1c(=O)n(C2CCC2)c2c3cc(-c4ccc(OCCCN5CCCC5)nc4)ccc3ncc21 | > 9.56
CO[C@H]1C[C@@H](n2c(=O)n(C)c3cnc4cc(F)c(-c5ccc(OCCCN(C)C)nc5F)cc4c32)C1 | > 28
Cn1c(=O)n([C@H]2CCCOC2)c2c3cc(-c4ccc(OCCCN5CCCC5)nc4)c(F)cc3ncc21 | > 30
Cn1c(=O)n(C2CCOCC2)c2c3cc(-c4ccc(OCCCN5CCCCC5)nc4)c(F)cc3ncc21 | > 16.7
Cn1c(=O)n([C@H]2CCCOC2)c2c3cc(-c4ccc(OCCCN5CCC5)nc4)ccc3ncc21 | 0.499
Cn1c(=O)n(C2CCC2)c2c3cc(-c4ccc(OCCCN5CCCCC5)nc4)ccc3ncc21 | > 14.3
CN(C)CCCOc1ccc(-c2ccc3ncc4c(c3c2)n(C2COC2)c(=O)n4C)cn1 | 6.84
CN(C)CCCOc1ccc(-c2cc3c(cc2F)ncc2c3n([C@H]3CCCOC3)c(=O)n2C)c(F)n1 | > 9.4
Cn1c(=O)n([C@H]2CCCOC2)c2c3cc(-c4ccc(OCCCN5CCCC5)nc4F)ccc3ncc21 | > 16.2
Cn1c(=O)n([C@H]2CCCOC2)c2c3cc(-c4ccc(OCCCN5CCCCC5)nc4)ccc3ncc21 | > 10.9
CO[C@H]1C[C@@H](n2c(=O)n(C)c3cnc4cc(F)c(-c5ccc(OCCCN6CCCC6)nc5)cc4c32)C1 | > 29.8
Cn1c(=O)n(C2COC2)c2c3cc(-c4ccc(OCCCN5CCCCC5)nc4)ccc3ncc21 | > 26.3
CN(C)CCCOc1ccc(-c2ccc3ncc4c(c3c2)n([C@H]2C[C@@H](O)C2)c(=O)n4C)cn1 | 1.08
O=c1[nH]c2cnc3ccc(-c4ccc(OCCCN5CCCCC5)nc4)cc3c2n1C1CCOCC1 | > 25
CN(C)CCCOc1ccc(-c2cc3c(cc2F)ncc2c3n(C3COC3)c(=O)n2C)cn1 | > 29.1
Cn1c(=O)n([C@H]2CCCOC2)c2c3cc(-c4ccc(OCCCN5CCCCC5)nc4)c(F)cc3ncc21 | > 23.5
CO[C@H]1C[C@@H](n2c(=O)n(C)c3cnc4cc(F)c(-c5ccc(OCCCN(C)C)nc5)cc4c32)C1 | > 30
CN(C)CCCOc1ccc(-c2cc3c(cc2F)ncc2c3n([C@@H]3CCCOC3)c(=O)n2C)cn1 | 10
